In patent US20070190181A1, “Methods of treating cancer with lipid-based platinum compound forumulations administered intravenously” (priority 2005, published 2007):

What was measured:
Lewis Lung cells = test: murine Lewis lung tumor metastasis model (lung tumor weight); type: in vivo, C57B1/6 mice
[1] = Pharmacokinetics and organ distribution of ip and iv injected L-CDDP and CDDP (platinum by ICP-MS); type: in vivo, ICR mice; conditions: 8 mg/kg
Protocol: Pharmacokinetics and organ distribution in animals of ip and iv injected lipid-based cisplatin and cisplatin (Part II). Sixty ICR mice (female, 7 weeks old) were divided into 4 groups. They received intraperitoneal or intravenous injection of L-CDDP or CDDP, separately. The dose was 12 mg/kg for ip L-CDDP and 8 mg/kg for the rest of treatment groups. At each designed time point, three to four mice were anaesthetized with 70 mg/kg of Nembutal ip (e.g., 3, 20, and 40 min, and 2, 8, 24, 48, and 72 h). […] Organs including liver, lung, and spleen were resected from the mice. The organ samples were homogenized in distilled water (4-fold of the sample weight) and digested with nitric acid. The platinum concentration in each sample was measured by Inductively Coupled Plasma-Mass Spectrometer (ICP-MS). The pharmacokinetics profiles (FIGS. 4, 5, and 6, all Y-axes are concentration of μg platinum in one gram of tissue or fluid per mg of injected dose) and parameters (Table 4) of each formulation were simulated and calculated.

[2] = Nephrotoxicity at MTD (BUN and kidney pathology grading); type: in vivo; conditions: four days after injection
Excerpt: Nephrotoxicity. ICR mice, 7 weeks old, female, were divided into 4 groups with 3 to 4 mice in each. […] Four days after the injection, the mice were euthanized with Nembutal ip. The blood was drawn and the serum was isolated. The blood urea nitrogen (BUN) was quantitatively measured with a calorimetric method at Antech Diagnostics. Organs including duodenum, heart, kidney, liver, lung, and spleen were resected from the mice and fixed with 10% buffered Formalin. The fixed tissues were processed with standard procedure for H and E staining. A pathology expert Dr. Carman Tomos at the Memorial Sloan-Kettering Cancer Center examined kidney tissues and gave a toxicity grade to each kidney tissue sample. The grading was based on the general pathology guidelines for kidney toxicity.

N.N.[Cl][Pt][Cl] [CDDP, cis diamminedichloroplatinum]
inhibition of growth of Lewis lung tumors (Lewis Lung cells; inhalation therapy, nebulized 1 mg/ml, days 5, 8 and 11): did not significantly inhibit | inhibition of tumor growth (Lewis lung tumor weight vs saline) (Lewis Lung cells; three iv doses of 2 mg/kg on days 5, 8 and 11 post tumor cell injection): no significant inhibition of tumor growth | AUC ([1]; Liver): 19.96 µg·h/g/µg | AUC ([1]; Lung): 5.58 µg·h/g/µg | AUC ([1]; Spleen): 8.11 µg·h/g/µg | increase of BUN level compared with normal controls ([2]; ip, p=0.04): 2.1 fold | increase of BUN level compared with normal controls ([2]; iv, p=0.008): 6.8 fold
